# Assay results from patent publication US8574831B2, “Mutational profiles in HIV-1 reverse transcriptase correlated with phenotypic drug resistance” (Virco N.V., priority 2000, dated 2013).
# System: HIV with mutations in the HIV protease sequence
# Test: Phenotypic fold resistance to protease inhibitors, protease mutations 84A/84L/84C/54M/54L/54V in a background (Examples 8-13)
# Format: cell-based, HIV-1
# Procedure: As is the case with the genotyping assays, the recombinant virus assay starts with the amplification of viral target sequences by means of PCR. The amplicons are incorporated into a proviral laboratory clone with sequences homologous to those present in the amplicon deleted. This generates a stock of chimeric viruses. The viruses are tested for their ability to grow in the presence of different concentrations of drugs. Results are obtained by calculating IC50 values for each inhibitor and by reporting the results as IC50 values, expressed in μM concentrations, or by computing the ratio of the IC50 values found for the chimeric virus to the IC50 values found for a wild type susceptible laboratory virus tested in parallel. In the latter case, resistance is expressed as “fold-resistance” compared to a wild-type susceptible HIV-1 strain. In order to meet the need for high-volume testing and a short turn-around time for an individual test, the latest generation of phenotyping assays has undergone further modifications. The use of reporter gene systems for susceptibility testing allows the implementation of laboratory automation and standardization. See Pauwels, et al., J. Virol. Methods 20, 309-321 (1998); Paulous, S., et al., International Workshop on HIV Drug Resistance, Treatment Strategies and Eradication, St. Petersburg, Fla., USA. Abstr. 46 (1997); and Deeks, S. G., et al., 2nd International Workshop on HIV Drug Resistance and Treatment Strategies, Lake Maggiore, Italy. Abstr. 53 (1998).
# The ANTIVIROGRAM® assay (Virco) (WO 97/27480) is based on homologous recombination of patient derived HIV-1 gag/PR/RT sequences into a proviral HIV-1 clone correspondingly deleted for the gag/PR/RT sequences. See Pauwels, et al., J. Virol. Methods 20, 309-321 (1998). A similar assay (Phenosense ViroLogic) is based on enzymatic ligation of patient-derived PR/RT sequences into a correspondingly deleted proviral vector carrying an indicator gene, luciferase, inserted in the deleted HIV-1 envelope gene. See Deeks, S. G., et al., 2nd International Workshop on HIV Drug Resistance and Treatment Strategies, Lake Maggiore, Italy. Abstr. 53 (1998). Hertogs et al. Antimicrob. Agents Chemother. 44(3) 568-573 (2000) the disclosures of which are herein incorporated by reference.
# The methods of monitoring HIV-1 drug resistance, may also be used in combination with phenotypic drug resistance testing of viral isolates. For example, in one embodiment, a phenotypic test is utilized that is based upon the construction of chimeric HIV-1 strains composed of the protease (PR) and reverse transcriptase (RT) gene sequences which are isolated and amplified from the patient viral RNA. These strains may subsequently be recombined inside CD4+ T cells with a standard laboratory isogenic (HXB2) HIV-1 DNA construct from which the PR/RT gene sequences were deleted. The recombinant strains may then be grown in the presence of the above-mentioned antiviral drugs and the susceptibility of the viral isolates may be expressed as fold-change value of the IC50 of the drug on the patient isolates over the IC50 of the drug on a wild-type laboratory reference strain.
structure (smiles),measurement,setting,value
"Cc1c(O)cccc1C(=O)N[C@@H](CSc1ccccc1)[C@H](O)CN1C[C@H]2CCCC[C@H]2C[C@H]1C(=O)NC(C)(C)C [Nelfinavir, nelfinavir]",mean fold increase in resistance,"Table 9 #1, protease genotype WT",0.7 fold
same,mean fold increase in resistance,"Table 9 #2, protease genotype 10I",1 fold
same,mean fold increase in resistance,"Table 9 #3, protease genotype 46I",1.5 fold
same,mean fold increase in resistance,"Table 9 #4, protease genotype 46I + 84V",5.6 fold
same,mean fold increase in resistance,"Table 9 #5, protease genotype 46I + 84A",61.9 fold
same,mean fold increase in resistance,"Table 9 #6, protease genotype 10I + 46I",0.8 fold
same,mean fold increase in resistance,"Table 9 #7, protease genotype 10I + 46I + 84V",3.1 fold
same,mean fold increase in resistance,"Table 9 #8, protease genotype 10I + 46I + 84A",43.9 fold
same,mean fold increase in resistance,"Table 9 #9, protease genotype 10L/I + 46I + 84A",56.2 fold
same,mean fold increase in resistance,"Table 9 #10, protease genotype 10I + 46I + 84A",36.9 fold
same,mean fold increase in resistance,"Table 9 #11, protease genotype 46I + 71V",1 fold
same,mean fold increase in resistance,"Table 9 #12, protease genotype 46I + 71V + 84V/I",0.7 fold
same,mean fold increase in resistance,"Table 9 #13, protease genotype 46I + 71V + 84A",59.9 fold
same,mean fold increase in resistance,"Table 9 #14, protease genotype 10F + 46I + 71V",45.2 fold
same,mean fold increase in resistance,"Table 9 #15, protease genotype 10I + 46I + 71V + 84V",57.1 fold
same,mean fold increase in resistance,"Table 9 #16, protease genotype 10I + 46I + 71V + 84A",54.9 fold
same,mean fold increase in resistance,"Table 9 #17, protease genotype 10V + 46I + 71T + 84A",51.2 fold
same,mean fold increase in resistance,"Table 9 #18, protease genotype 10I + 46I + 71V + 77I",6.1 fold
same,mean fold increase in resistance,"Table 9 #19, protease genotype 10I + 46I + 71V + 77I + 84V",2.8 fold
same,mean fold increase in resistance,"Table 9 #20, protease genotype 10I + 46I + 71V + 77I + 84A",68.6 fold
same,mean fold increase in resistance,"Table 9 #21, protease genotype 10I + 33L/I + 46I + 71V + 77V/I + 84A",63.1 fold
same,mean fold increase in resistance,"Table 10 #1, protease genotype 10I + 36I + 71V",1.5 fold
same,mean fold increase in resistance,"Table 10 #2, protease genotype 10I + 36I + 71I + 84V",0.8 fold
same,mean fold increase in resistance,"Table 10 #3, protease genotype 10I + 36I + 71I + 84L",39.4 fold
same,mean fold increase in resistance,"Table 11 #1, protease genotype WT",0.7 fold
same,mean fold increase in resistance,"Table 11 #2, protease genotype 84V",0.9 fold
same,mean fold increase in resistance,"Table 11 #3, protease genotype 84C",51.2 fold
same,mean fold increase in resistance,"Table 11 #4, protease genotype 10I",1.0 fold
same,mean fold increase in resistance,"Table 11 #5, protease genotype 10I + 84V",2.0 fold
same,mean fold increase in resistance,"Table 11 #6, protease genotype 10I + 84C",61.9 fold
same,mean fold increase in resistance,"Table 11 #7, protease genotype 77I",0.9 fold
same,mean fold increase in resistance,"Table 11 #8, protease genotype 77I + 84V",2.8 fold
same,mean fold increase in resistance,"Table 11 #9, protease genotype 77I + 84C",61.9 fold
same,mean fold increase in resistance,"Table 11 #10, protease genotype 77I + 84C",38.2 fold
same,mean fold increase in resistance,"Table 11 #11, protease genotype 10I + 24I + 36I + 46I + 71V + 84C",51.7 fold
same,Fold change in IC50,"Table 12, V19263, genotype 77I",0.9 fold
same,Fold change in IC50,"Table 12, V20160, genotype WT",0.7 fold
same,Fold change in IC50,"Table 12, V021667, genotype 10I",1.0 fold
same,Fold change in IC50,"Table 12, V030496, genotype 10I + 77I",0.7 fold
same,Fold change in IC50,"Table 12, V048869, genotype 10I + 54M + 77I + 90M",28.5 fold
same,Fold change in IC50,"Table 12, V048872, genotype 33F + 54M + 77I + 90M",7.4 fold
same,Fold change in IC50,"Table 12, V048873, genotype 33F + 54M + 77I + 90M",7.7 fold
same,Fold change in IC50,"Table 12, V048877, genotype 10I + 33F + 77I + 90M",9.4 fold
same,Fold change in IC50,"Table 12, V048878, genotype 10I + 33F + 54M + 71V + 77I + 90M",7.3 fold
same,Fold change in IC50,"Table 12, V048879, genotype 10I + 33F + 54M + 71V + 77I + 90M",45.7 fold
same,Fold change in IC50,"Table 12, V048880, genotype 10I + 33F + 77I + 90M",4.9 fold
same,Fold change in IC50,"Table 12, V052940, genotype 71V",0.6 fold
same,Fold change in IC50,"Table 12, V052942, genotype 10I + 71V",0.9 fold
same,Fold change in IC50,"Table 12, V052943, genotype 10I + 90M",2.2 fold
same,Fold change in IC50,"Table 12, V052944, genotype 10I + 90M",1.4 fold
same,Fold change in IC50,"Table 12, V052945, genotype 77I + 90M",3.0 fold
same,Fold change in IC50,"Table 12, V052946, genotype 71V + 90M",3.0 fold
same,Fold change in IC50,"Table 12, V052947, genotype 10I + 77I + 90M",8.2 fold
same,Fold change in IC50,"Table 12, V052948, genotype 10I + 71V + 90M",9.0 fold
same,Fold change in IC50,"Table 12, V052949, genotype 10I + 71V + 77I + 90M",8.6 fold
same,Fold change in IC50,"Table 12, V052950, genotype 33F",1.0 fold
same,Fold change in IC50,"Table 12, V052951, genotype 33F + 77I",5.2 fold
same,Fold change in IC50,"Table 12, V052953, genotype 10I + 33F + 77I",0.9 fold
same,Fold change in IC50,"Table 12, V052954, genotype 33F + 77I + 90M",5.9 fold
same,Fold change in IC50,"Table 12, V052955, genotype 33F + 71V + 90M",36.6 fold
same,Fold change in IC50,"Table 12, V052977, genotype 10I + 33F + 54M",3.8 fold
same,Fold change in IC50,"Table 12, V052978, genotype 10I + 33F + 54M + 71V + 90M",29.1 fold
same,Fold change in IC50,"Table 12, V052979, genotype 10I + 54M",3.8 fold
same,Fold change in IC50,"Table 12, V052980, genotype 10I + 54M + 90M",7.0 fold
same,Fold change in IC50,"Table 12, V052981, genotype 10I + 54M + 71V + 90M",8.7 fold
same,Fold change in IC50,"Table 12, V052982, genotype 10I + 54M + 71V + 77I + 90M",10.1 fold
same,Fold change in IC50,"Table 12, V053832, genotype 10I + 33F",1.6 fold
